Results: patent publication US11957783B2, “Topical immunosensitizers to treat viral and fungal infections” (Squarex, LLC, priority 2018, dated 2024)

System: peripheral blood mononuclear cells (PBMC)
Assay: Cytokine and immune-function gene expression of PBMC in vitro (qRT-PCR, 41 immune-related genes)
Format: cell-based, human
Settings: Group A
Method: After a screening visit at which blood was drawn to test for IgG antibody against HSV-1 and subjects were interviewed for inclusion/exclusion criteria, selected subjects returned for blood draws on day 1. After the blood draw on day 1, subjects in group A only were dosed with SADBE. A petrolatum donut was applied with a cotton swab to form about a 1 cm diameter donut on skin on the inner aspect of the upper arm. Then a separate cotton swab was dipped in a 2% SADBE solution (w/v) in DMSO, and the swab was then used to apply about 10-20 mg of solution over about a 1 cm diameter circle within the petrolatum donut. Immediately after application, the application site was covered with TEGADERM. Subjects were advised to remove the TEGADERM and rinse and wipe the spot three hours later. The group A subjects then returned for blood draws on days 15 and 57 and were queried about adverse events on those dates.
PBMC were isolated using SepMate PBMC isolation tubes (Stem Cell Technologies, Vancouver, Canada) and Ficoll-Paque according to the manufacturer's instructions. PBMC were isolated and suspended in negative control medium at 2 million cells/ml. PBMC suspension (100 μL) was added to 100 μL of medium in quadruplicate in 96-well plates. The plates were prepared in advance and stored at −70° C. The wells were in five different conditions in quadruplicate with these final concentrations after addition of the 100 μL of PBMC suspension in negative control medium. • 1. Negative control in medium (RPMI with glutamine and pen/strep, supplemented with 10% human A/B serum). • 2. Medium plus 16 μg/ml protein from heat-inactivated HSV-1-infected Vero cell extracts. • 3. Medium plus heat-inactivated HSV-1 cell-free virus at a final 7.5 million pfu/ml. • 4. Medium plus Candida cell extract. (Greer item number M15A50, 20,000 pnu/ml allergenic extract mixed molds Candida albicans, was diluted 1/50 into medium). • 5. Positive control, medium plus 10 μg/ml concanavalin A.
Two plates were created for each subject at each collection point. One plate was incubated for 2 days at 37° C. in a humidified 5% CO2 atmosphere and then RNA was isolated from the pooled contents of the 4 wells of a given condition for a specific patient, and the RNA was stored at −70° C. and subsequently used for quantitative real time PCR analysis of gene expression of 41 immune-related genes.
As noted above, after 2 days of growth of the PBMC in a 37° C. humidified 5% CO2 incubator in a 96-well plate, four wells of a single condition (negative control, positive control, heat-inactivated HSV-1, HSV-1-infected cell extracts, or Candida extract) with cells from a single subject (200 μL in each well) were pooled, and the RNA was immediately isolated with Trizol reagent and chloroform by Qiagen RNeasy MiniElute clean up kit Qiagen cat #74204, according to manufacturer's instructions into a final volume of 13 μL, and then flash frozen on powdered dry ice, and stored at −70° C. in aliquots of 3 μL for RNA quantification and 10 μL for PCR analysis.
RNA was preamplified with the Qiagen RT2 PreAMP cDNA synthesis kit (Ref. 330451) and custom RT2 PreAmp primer mix (Ref. 330141) starting with about 50 ng RNA according to the procedure of RT preamp cDNA synthesis handbook date March 2011, pages 17-20. The amplification reactions (final 120 μL) were frozen at −70° C. and used for qPCR analysis the next day.
qPCR was done with the Qiagen RT PCR profiler gene analysis kit (catalog number 330451) using RT2 Sybr Green Rox qPCR Mastermix (24) (Part 330523) and Custom RT2 PCR array plates (Ref. 330171). For this 675 μL 2×RT2 SYBR green mastermix, 51 μL pre-AMP synthesis reaction, and 623 μL RNase free water were mixed, and then 25 μL of the mixture was added to 48 wells on the left or right half of the custom PCR plate. The PCR instrument was Applied Biosystems 7900HT fast real time PCR. […]

SMILES: CCCCOc1c(OCCCC)c(=O)c1=O [SADBE, 3,4-Dibutoxy-3-cyclobutene-1,2-dione]
- IFNB1 ratio of PBMC absolute gene expression day 57/day 1 (HSV-infected cell extracts): 0.65
- IFNG ratio of PBMC absolute gene expression day 15/day 1 (HSV-infected cell extracts): 1.26
- IFNG ratio of PBMC absolute gene expression day 57/day 1 (HSV-infected cell extracts): 5.72
- IL1B ratio of PBMC absolute gene expression day 15/day 1 (HSV-infected cell extracts): 1.48
- IL1B ratio of PBMC absolute gene expression day 57/day 1 (HSV-infected cell extracts): 21.45
- IL1R1 ratio of PBMC absolute gene expression day 15/day 1 (HSV-infected cell extracts): 0.89
- IL1R1 ratio of PBMC absolute gene expression day 57/day 1 (HSV-infected cell extracts): 1.11
- IL1RN ratio of PBMC absolute gene expression day 15/day 1 (HSV-infected cell extracts): 0.94
- IL1RN ratio of PBMC absolute gene expression day 57/day 1 (HSV-infected cell extracts): 0.79
- IL2 ratio of PBMC absolute gene expression day 15/day 1 (HSV-infected cell extracts): 0.98
- IL2 ratio of PBMC absolute gene expression day 57/day 1 (HSV-infected cell extracts): 2.48
- IL4 ratio of PBMC absolute gene expression day 15/day 1 (HSV-infected cell extracts): 0.77
- IL4 ratio of PBMC absolute gene expression day 57/day 1 (HSV-infected cell extracts): 0.89
- IL5 ratio of PBMC absolute gene expression day 15/day 1 (HSV-infected cell extracts): 0.83
- IL5 ratio of PBMC absolute gene expression day 57/day 1 (HSV-infected cell extracts): 0.50
- IL8 ratio of PBMC absolute gene expression day 15/day 1 (HSV-infected cell extracts): 0.99
- IL8 ratio of PBMC absolute gene expression day 57/day 1 (HSV-infected cell extracts): 3.86
- IL10 ratio of PBMC absolute gene expression day 15/day 1 (HSV-infected cell extracts): 1.19
- IL10 ratio of PBMC absolute gene expression day 57/day 1 (HSV-infected cell extracts): 3.29
- IL12A ratio of PBMC absolute gene expression day 15/day 1 (HSV-infected cell extracts): 0.90
- IL12A ratio of PBMC absolute gene expression day 57/day 1 (HSV-infected cell extracts): 0.89
- IL12B ratio of PBMC absolute gene expression day 15/day 1 (HSV-infected cell extracts): 0.80
- IL12B ratio of PBMC absolute gene expression day 57/day 1 (HSV-infected cell extracts): 0.23
- IL13 ratio of PBMC absolute gene expression day 15/day 1 (HSV-infected cell extracts): 1.01
- IL13 ratio of PBMC absolute gene expression day 57/day 1 (HSV-infected cell extracts): 2.28
- IL15 ratio of PBMC absolute gene expression day 15/day 1 (HSV-infected cell extracts): 0.93
- IL15 ratio of PBMC absolute gene expression day 57/day 1 (HSV-infected cell extracts): 0.87
- IL16 ratio of PBMC absolute gene expression day 15/day 1 (HSV-infected cell extracts): 1.03
- IL16 ratio of PBMC absolute gene expression day 57/day 1 (HSV-infected cell extracts): 1.02
- JAK2 ratio of PBMC absolute gene expression day 15/day 1 (HSV-infected cell extracts): 0.86
- JAK2 ratio of PBMC absolute gene expression day 57/day 1 (HSV-infected cell extracts): 0.82
- LTA ratio of PBMC absolute gene expression day 15/day 1 (HSV-infected cell extracts): 1.03
- LTA ratio of PBMC absolute gene expression day 57/day 1 (HSV-infected cell extracts): 0.99
- LYZ ratio of PBMC absolute gene expression day 15/day 1 (HSV-infected cell extracts): 0.73
- LYZ ratio of PBMC absolute gene expression day 57/day 1 (HSV-infected cell extracts): 0.29
- MX1 ratio of PBMC absolute gene expression day 15/day 1 (HSV-infected cell extracts): 0.89
- MX1 ratio of PBMC absolute gene expression day 57/day 1 (HSV-infected cell extracts): 0.66
- NOD1 ratio of PBMC absolute gene expression day 15/day 1 (HSV-infected cell extracts): 1.04
- NOD1 ratio of PBMC absolute gene expression day 57/day 1 (HSV-infected cell extracts): 0.89
- SPP1 ratio of PBMC absolute gene expression day 15/day 1 (HSV-infected cell extracts): 2.09
- SPP1 ratio of PBMC absolute gene expression day 57/day 1 (HSV-infected cell extracts): 5.38
- STAT1 ratio of PBMC absolute gene expression day 15/day 1 (HSV-infected cell extracts): 0.90
- STAT1 ratio of PBMC absolute gene expression day 57/day 1 (HSV-infected cell extracts): 0.91
- STAT4 ratio of PBMC absolute gene expression day 15/day 1 (HSV-infected cell extracts): 0.89
- STAT4 ratio of PBMC absolute gene expression day 57/day 1 (HSV-infected cell extracts): 1.01
- TNF ratio of PBMC absolute gene expression day 15/day 1 (HSV-infected cell extracts): 1.17
- TNF ratio of PBMC absolute gene expression day 57/day 1 (HSV-infected cell extracts): 1.2
- TNFSF10 ratio of PBMC absolute gene expression day 15/day 1 (HSV-infected cell extracts): 0.84
- TNFSF10 ratio of PBMC absolute gene expression day 57/day 1 (HSV-infected cell extracts): 0.88
- TNFSF13B ratio of PBMC absolute gene expression day 15/day 1 (HSV-infected cell extracts): 0.93
- TNFSF13B ratio of PBMC absolute gene expression day 57/day 1 (HSV-infected cell extracts): 1.07
- CCL2 ratio of PBMC absolute gene expression day 15/day 1 (Neg. control): 0.35
- CCL2 ratio of PBMC absolute gene expression day 57/day 1 (Neg. control): 1.15
- CCL3 ratio of PBMC absolute gene expression day 15/day 1 (Neg. control): 0.47
- CCL3 ratio of PBMC absolute gene expression day 57/day 1 (Neg. control): 1.79
- CCL7 ratio of PBMC absolute gene expression day 15/day 1 (Neg. control): 0.25
- CCL7 ratio of PBMC absolute gene expression day 57/day 1 (Neg. control): 1.35
- CCR5 ratio of PBMC absolute gene expression day 15/day 1 (Neg. control): 1.00
- CCR5 ratio of PBMC absolute gene expression day 57/day 1 (Neg. control): 1.19
- CD80 ratio of PBMC absolute gene expression day 15/day 1 (Neg. control): 0.66
- CD80 ratio of PBMC absolute gene expression day 57/day 1 (Neg. control): 1.16
- CXCL2 ratio of PBMC absolute gene expression day 15/day 1 (Neg. control): 0.51
- CXCL2 ratio of PBMC absolute gene expression day 57/day 1 (Neg. control): 1.33
- CXCL5 ratio of PBMC absolute gene expression day 15/day 1 (Neg. control): 0.36
- CXCL5 ratio of PBMC absolute gene expression day 57/day 1 (Neg. control): 1.78
- CXCL9 ratio of PBMC absolute gene expression day 15/day 1 (Neg. control): 2.50
- CXCL9 ratio of PBMC absolute gene expression day 57/day 1 (Neg. control): 4.93
- CXCL10 ratio of PBMC absolute gene expression day 15/day 1 (Neg. control): 0.94
- CXCL10 ratio of PBMC absolute gene expression day 57/day 1 (Neg. control): 0.68
- CXCL11 ratio of PBMC absolute gene expression day 15/day 1 (Neg. control): 0.62
- CXCL11 ratio of PBMC absolute gene expression day 57/day 1 (Neg. control): 0.83
- DDX58 ratio of PBMC absolute gene expression day 15/day 1 (Neg. control): 0.82
- DDX58 ratio of PBMC absolute gene expression day 57/day 1 (Neg. control): 0.83
- FOXP3 ratio of PBMC absolute gene expression day 15/day 1 (Neg. control): 0.95
- FOXP3 ratio of PBMC absolute gene expression day 57/day 1 (Neg. control): 1.07
- GATA3 ratio of PBMC absolute gene expression day 15/day 1 (Neg. control): 1.06
- GATA3 ratio of PBMC absolute gene expression day 57/day 1 (Neg. control): 0.84
- ICAM1 ratio of PBMC absolute gene expression day 15/day 1 (Neg. control): 1.10
- ICAM1 ratio of PBMC absolute gene expression day 57/day 1 (Neg. control): 1.34
- IFNA1 ratio of PBMC absolute gene expression day 15/day 1 (Neg. control): 1.20
- IFNA1 ratio of PBMC absolute gene expression day 57/day 1 (Neg. control): 1.47
- IFNB1 ratio of PBMC absolute gene expression day 15/day 1 (Neg. control): 0.99
- IFNB1 ratio of PBMC absolute gene expression day 57/day 1 (Neg. control): 0.73
- IFNG ratio of PBMC absolute gene expression day 15/day 1 (Neg. control): 1.05
- IFNG ratio of PBMC absolute gene expression day 57/day 1 (Neg. control): 1.24
- IL1B ratio of PBMC absolute gene expression day 15/day 1 (Neg. control): 0.16
- IL1B ratio of PBMC absolute gene expression day 57/day 1 (Neg. control): 2.09
- IL1R1 ratio of PBMC absolute gene expression day 15/day 1 (Neg. control): 1.00
- IL1R1 ratio of PBMC absolute gene expression day 57/day 1 (Neg. control): 0.6
- IL1RN ratio of PBMC absolute gene expression day 15/day 1 (Neg. control): 0.90
- IL1RN ratio of PBMC absolute gene expression day 57/day 1 (Neg. control): 1.35
- IL2 ratio of PBMC absolute gene expression day 15/day 1 (Neg. control): 0.80
- IL2 ratio of PBMC absolute gene expression day 57/day 1 (Neg. control): 1.21
- IL4 ratio of PBMC absolute gene expression day 15/day 1 (Neg. control): 0.86
- IL4 ratio of PBMC absolute gene expression day 57/day 1 (Neg. control): 0.98
- IL5 ratio of PBMC absolute gene expression day 15/day 1 (Neg. control): 0.99
- IL5 ratio of PBMC absolute gene expression day 57/day 1 (Neg. control): 0.39
- IL8 ratio of PBMC absolute gene expression day 15/day 1 (Neg. control): 0.62
- IL8 ratio of PBMC absolute gene expression day 57/day 1 (Neg. control): 2.38
- IL10 ratio of PBMC absolute gene expression day 15/day 1 (Neg. control): 0.90
- IL10 ratio of PBMC absolute gene expression day 57/day 1 (Neg. control): 1.04
- IL12A ratio of PBMC absolute gene expression day 15/day 1 (Neg. control): 0.84
- IL12A ratio of PBMC absolute gene expression day 57/day 1 (Neg. control): 0.98
- IL12B ratio of PBMC absolute gene expression day 15/day 1 (Neg. control): 0.40
- IL12B ratio of PBMC absolute gene expression day 57/day 1 (Neg. control): 1.38
- IL13 ratio of PBMC absolute gene expression day 15/day 1 (Neg. control): 0.88
- IL13 ratio of PBMC absolute gene expression day 57/day 1 (Neg. control): 1.69
- IL15 ratio of PBMC absolute gene expression day 15/day 1 (Neg. control): 0.95
- IL15 ratio of PBMC absolute gene expression day 57/day 1 (Neg. control): 1.13
- IL16 ratio of PBMC absolute gene expression day 15/day 1 (Neg. control): 1.06
- IL16 ratio of PBMC absolute gene expression day 57/day 1 (Neg. control): 0.89
- JAK2 ratio of PBMC absolute gene expression day 15/day 1 (Neg. control): 0.91
- JAK2 ratio of PBMC absolute gene expression day 57/day 1 (Neg. control): 0.93
- LTA ratio of PBMC absolute gene expression day 15/day 1 (Neg. control): 0.94
